Test results from ChEMBL document CHEMBL2169839 (J Med Chem, 2012).
Residue numbers refer to the chain shown, from its start. pIC50, pKi: −log10 of the molar value.

Tests used:
[1] = target: T1, Aldo-keto reductase family 1 member C3 (Homo sapiens, UniProt P42330); experiment: biochemical
T1 sequence (P42330 whole entry): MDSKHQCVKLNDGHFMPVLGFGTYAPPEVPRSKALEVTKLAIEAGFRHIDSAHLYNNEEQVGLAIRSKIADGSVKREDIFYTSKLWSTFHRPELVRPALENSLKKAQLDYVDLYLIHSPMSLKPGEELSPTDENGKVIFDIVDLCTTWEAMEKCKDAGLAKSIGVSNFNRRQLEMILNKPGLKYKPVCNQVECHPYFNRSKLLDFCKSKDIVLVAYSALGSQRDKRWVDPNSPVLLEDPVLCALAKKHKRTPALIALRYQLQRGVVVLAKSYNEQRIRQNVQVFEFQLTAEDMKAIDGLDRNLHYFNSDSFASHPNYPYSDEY

[2] = target: T2, Aldo-keto reductase family 1 member C1 (Homo sapiens, UniProt Q04828)
T2 sequence (Q04828 whole entry): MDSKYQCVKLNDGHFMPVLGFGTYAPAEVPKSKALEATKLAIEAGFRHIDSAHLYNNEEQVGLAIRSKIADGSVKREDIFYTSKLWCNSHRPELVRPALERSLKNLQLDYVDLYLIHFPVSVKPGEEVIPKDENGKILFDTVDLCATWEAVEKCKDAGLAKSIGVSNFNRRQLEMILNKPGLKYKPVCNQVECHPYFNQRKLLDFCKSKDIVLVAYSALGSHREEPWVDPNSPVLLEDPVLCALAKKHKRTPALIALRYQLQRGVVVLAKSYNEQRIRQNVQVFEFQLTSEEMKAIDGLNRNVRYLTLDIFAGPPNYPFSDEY

[3] = target: T3, Aldo-keto reductase family 1 member C2 (Homo sapiens, UniProt P52895)
T3 sequence (P52895 whole entry): T2 sequence (Q04828 whole entry) with T38V, R47H, L54V, C87S, V151M, R170H, Q172L

[4] = target: T4, Aldo-keto reductase family 1 member C4 (Homo sapiens, UniProt P17516)
T4 sequence (P17516 whole entry): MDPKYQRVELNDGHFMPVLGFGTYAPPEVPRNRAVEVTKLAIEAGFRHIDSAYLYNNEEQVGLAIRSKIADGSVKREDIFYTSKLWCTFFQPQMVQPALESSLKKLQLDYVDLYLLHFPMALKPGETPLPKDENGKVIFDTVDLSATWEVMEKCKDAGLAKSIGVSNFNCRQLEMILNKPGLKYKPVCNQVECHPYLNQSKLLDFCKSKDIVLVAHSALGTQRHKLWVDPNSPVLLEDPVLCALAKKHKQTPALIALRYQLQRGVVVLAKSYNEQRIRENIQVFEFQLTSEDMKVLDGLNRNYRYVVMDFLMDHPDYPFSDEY

[5] = target: T1, Aldo-keto reductase family 1 member C3; experiment: Inhibition of AKR1C3 overexpressed in human HCT116 cells assessed as inhibition of PR-104A conversion to hydroxylamine after 2 hrs by LC-MS/MS analysis
[6] = target: T4, Aldo-keto reductase family 1 member C4; experiment: Inhibition of human recombinant AKR1C4 expressed in Escherichia coli BL21(DE3) using phenanthrenequinone as substrate by spectrophotometric analysis
[7] = target: T2, Aldo-keto reductase family 1 member C1; experiment: Inhibition of human recombinant AKR1C1 expressed in Escherichia coli BL21(DE3) using phenanthrenequinone as substrate by spectrophotometric analysis
[8] = target: T1, Aldo-keto reductase family 1 member C3

Compound | pIC50 [1] | pIC50 [2] | pIC50 [3] | pIC50 [4] | pIC50 [5] | pKi [6] | pKi [7] | pKi [8]
O=C(O)c1cccc(S(=O)(=O)N2CCc3ccccc3C2)c1 | 7.89 | 4.69 | < 4.52 | < 4.52 | 7.57 |  |  | 
O=C(O)[C@H]1CCCN(S(=O)(=O)c2ccc3ccccc3c2)C1 | 6.40 | < 4.52 | < 5.52 | < 5.52 | < 6.00 |  |  | 
O=C(O)c1cccc(S(=O)(=O)N2CCc3ccc([N+](=O)[O-])cc3C2)c1 | 7.77 | < 4.52 | < 4.52 | < 4.52 | 7.14 |  |  | 
O=C(O)c1cccc(S(=O)(=O)N2CCc3ccc(Br)cc3C2)c1 | 7.92 | < 4.52 | < 4.52 | < 4.52 | 7.70 |  |  | 
O=C(O)c1cccc(S(=O)(=O)N2CCc3ccc(I)cc3C2)c1 | 7.85 | < 4.52 | < 4.52 | < 4.52 | 7.35 |  |  | 
O=C(O)c1cccc(S(=O)(=O)N2CCc3cccc(Cl)c3C2)c1 | 7.72 | 6.13 | 4.92 | < 4.52 | 7.55 |  |  | 
COc1cc2c(cc1OC)CN(S(=O)(=O)c1cccc(C(=O)O)c1)CC2 | 6.80 | < 4.52 | < 4.52 | < 4.52 | < 6.00 |  |  | 
O=C(O)c1cccc(S(=O)(=O)N2CCCc3ccccc32)c1 | 6.70 | < 4.52 | < 4.52 | < 4.52 | < 6.00 |  |  | 
O=C(O)c1cn(S(=O)(=O)c2ccc(Br)cc2)c2ccccc12 | 7.17 | 6.08 | < 4.52 | < 4.52 | 6.39 |  |  | 
CC1c2ccccc2CCN1S(=O)(=O)c1cccc(C(=O)O)c1 (stereo not drawn) | 7.57 | < 4.52 | < 4.52 | < 4.52 | 7.62 |  |  | 
CC1Cc2ccccc2CN1S(=O)(=O)c1cccc(C(=O)O)c1 (stereo not drawn) | 8.07 | < 4.52 | < 4.52 | < 4.52 | 6.75 |  |  | 
O=C(O)c1cccc(S(=O)(=O)N2CCc3c(cccc3[N+](=O)[O-])C2)c1 | 8.05 | 4.61 | < 4.52 | < 4.52 | 7.54 |  |  | 
O=C(O)c1cccc(S(=O)(=O)N2CCc3c(Cl)cccc3C2)c1 | 7.96 | < 4.52 | 5.03 | < 4.52 | 7.80 |  |  | 
O=C(O)c1cccc(S(=O)(=O)N2CCc3c(Br)cccc3C2)c1 | 7.96 | < 4.52 | < 4.52 | < 4.52 | 7.85 |  |  | 
O=C(O)c1cccc(S(=O)(=O)N2CCc3c(I)cccc3C2)c1 | 7.85 | < 4.52 | < 4.52 | < 4.52 | 7.70 |  |  | 
COc1ccc2c(c1)CCN(S(=O)(=O)c1cccc(C(=O)O)c1)C2 | 7.42 | < 4.52 | < 4.52 | < 4.52 | 6.41 |  |  | 
O=C(O)c1cccc(S(=O)(=O)N2CC=CCC2)c1 | 6.41 | < 4.52 | < 4.52 | < 4.52 | < 6.00 |  |  | 
O=C(O)c1cccc(S(=O)(=O)N2CCc3ccccc32)c1 | 6.68 | 5.18 | < 4.52 | < 4.52 | < 6.00 |  |  | 
CC/C=C\C[C@H]1C(=O)CC[C@@H]1CC(=O)O [JASMONIC ACID] |  |  |  |  |  | 4.43 | 3.97 | 3.79

The remaining lines, values ahead:

pIC50 [1] | pIC50 [2] | pIC50 [3] | pIC50 [4] | pIC50 [5] | pKi [6] | pKi [7] | pKi [8] | Compound
7.33 | 5.41 | < 4.52 | < 4.52 | 6.05 |  |  |  | O=C(O)c1cccc(S(=O)(=O)N2Cc3ccccc3C2)c1
6.66 | < 4.52 | < 4.52 | < 4.52 | < 6.00 |  |  |  | O=C(O)c1cccc(S(=O)(=O)NCCc2ccccc2)c1
7.68 | < 4.52 | < 4.52 | < 4.52 | 7.62 |  |  |  | O=C(O)c1cccc(S(=O)(=O)N2CCc3ccc(F)cc3C2)c1
7.70 | < 4.52 | < 4.52 | < 4.52 | < 6.00 |  |  |  | O=C(O)c1cccc(S(=O)(=O)N2CCc3ccc(Cl)cc3C2)c1
7.47 | < 4.52 | < 4.52 | < 4.52 | 6.58 |  |  |  | N#Cc1ccc2c(c1)CN(S(=O)(=O)c1cccc(C(=O)O)c1)CC2
7.28 | < 4.52 | < 4.52 | < 4.52 | 6.71 |  |  |  | Nc1cccc2c1CCN(S(=O)(=O)c1cccc(C(=O)O)c1)C2
7.80 | 4.59 | < 4.52 | < 4.52 | 6.34 |  |  |  | O=C(O)c1cccc(S(=O)(=O)N2CCc3c(O)cccc3C2)c1
7.80 | < 4.52 | < 4.52 | < 4.52 | 7.41 |  |  |  | COc1cccc2c1CCN(S(=O)(=O)c1cccc(C(=O)O)c1)C2
7.77 | < 4.52 | < 4.52 | < 4.52 | 7.28 |  |  |  | Cc1ccc2c(c1)CCN(S(=O)(=O)c1cccc(C(=O)O)c1)C2
7.66 | < 4.52 | < 4.52 | < 4.52 | < 6.00 |  |  |  | O=C(O)c1cccc(S(=O)(=O)N2CCc3cc([N+](=O)[O-])ccc3C2)c1
8.06 | 5.13 | < 4.52 | < 4.52 | 7.41 |  |  |  | O=C(O)c1cccc(S(=O)(=O)N2CCc3cc(Cl)ccc3C2)c1
8.21 | < 4.52 | < 4.52 | < 4.52 | 7.92 |  |  |  | O=C(O)c1cccc(S(=O)(=O)N2CCc3cc(Br)ccc3C2)c1
7.57 | < 4.52 | < 4.52 | < 4.52 | < 6.00 |  |  |  | O=C(O)c1cccc(S(=O)(=O)N2CCc3cc(O)ccc3C2)c1
7.89 | < 4.52 | < 4.52 | < 4.52 | 7.54 |  |  |  | Cc1ccc2c(c1)CN(S(=O)(=O)c1cccc(C(=O)O)c1)CC2
7.60 | < 4.52 | < 4.52 | < 4.52 | 7.47 |  |  |  | O=C(O)c1cccc(S(=O)(=O)N2CCc3sccc3C2)c1
